Laboratory results: the supplement of paper PMC10307832

Legend:
Assay in all cases: relative viability (nuclei count vs DMSO), 5 days (fraction); higher = more cells survive
IU1-47 + Bortezomib = compound: CC1=CC(=C(N1C2=CC=C(C=C2)Cl)C)C(=O)CN3CCCCC3 [IU1-47] + CC(C)C[C@H](NC(=O)[C@H](Cc1ccccc1)NC(=O)c1cnccn1)B(O)O [Bortezomib] (partner 0.002 µM)
Procedure, shortened: (§1)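 After 5 days of treatment, lung cancer cells in 1536-well plates were fixed and stained in a single step (final 0.05% Triton X-100, 1% formaldehyde, 1 ug/ml Hoechst) and their nuclei counted on 4× images. Treatment had been applied by pin tool the day after seeding as one drug alone or as a fixed anchor-drug dose with five library-drug doses (not always all listed) in √10 steps. Relative viability is the nuclei count of treated wells divided by that of vehicle wells, and values are medians of duplicate plates.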

IU1-47 + Linsitinib = compound: CC1=CC(=C(N1C2=CC=C(C=C2)Cl)C)C(=O)CN3CCCCC3 [IU1-47] + C[C@]1(O)C[C@@H](c2nc(-c3ccc4ccc(-c5ccccc5)nc4c3)c3c(N)nccn32)C1 [Linsitinib] (partner 1 µM)
Procedure, shortened: as §1

FG-4592 + Palbociclib = compound: Cc1nc(C(=O)NCC(=O)O)c(O)c2ccc(Oc3ccccc3)cc12 [FG-4592] + CC(=O)c1c(C)c2cnc(Nc3ccc(N4CCNCC4)cn3)nc2n(C2CCCC2)c1=O [Palbociclib] (partner 0.5 µM)
Procedure, shortened: as §1

FG-4592 + Dasatinib = compound: Cc1nc(C(=O)NCC(=O)O)c(O)c2ccc(Oc3ccccc3)cc12 [FG-4592] + Cc1nc(Nc2ncc(C(=O)Nc3c(C)cccc3Cl)s2)cc(N2CCN(CCO)CC2)n1 [Dasatinib] (partner 0.075 µM)
Procedure, shortened: as §1

| Cell Line | relative viability (IU1-47 + Bortezomib; first compound 0.08 µM) | relative viability (IU1-47 + Bortezomib; first compound 0.253 µM) | relative viability (IU1-47 + Bortezomib; first compound 0.8 µM) | relative viability (IU1-47 + Bortezomib; first compound 2.53 µM) | relative viability (IU1-47 + Bortezomib; first compound 8 µM) | relative viability (IU1-47 + Linsitinib; first compound 0.08 µM) | relative viability (IU1-47 + Linsitinib; first compound 0.253 µM) | relative viability (IU1-47 + Linsitinib; first compound 0.8 µM) | relative viability (IU1-47 + Linsitinib; first compound 2.53 µM) | relative viability (IU1-47 + Linsitinib; first compound 8 µM) | relative viability (FG-4592 + Palbociclib; first compound 0.08 µM) | relative viability (FG-4592 + Palbociclib; first compound 0.253 µM) | relative viability (FG-4592 + Palbociclib; first compound 0.8 µM) | relative viability (FG-4592 + Palbociclib; first compound 2.53 µM) | relative viability (FG-4592 + Palbociclib; first compound 8 µM) | relative viability (FG-4592 + Dasatinib; first compound 0.08 µM) | relative viability (FG-4592 + Dasatinib; first compound 0.253 µM) | relative viability (FG-4592 + Dasatinib; first compound 0.8 µM) | relative viability (FG-4592 + Dasatinib; first compound 2.53 µM) | relative viability (FG-4592 + Dasatinib; first compound 8 µM) |
| --- | --- | --- | --- | --- | --- | --- | --- | --- | --- | --- | --- | --- | --- | --- | --- | --- | --- | --- | --- | --- |
| NCI-H2126 | 1.17 | 1.18 | 1.19 | 0.894 | 1.04 | 0.733 | 0.76 | 0.74 | 0.531 | 0.778 | 0.335 | 0.358 | 0.324 | 0.372 | 0.334 | 0.642 | 0.578 | 0.476 | 0.506 | 0.384 |
| NCI-H2228 | 1.25 | 0.922 | 0.949 | 1.1 | 0.932 | 0.586 | 0.555 | 0.752 | 0.521 | 0.414 | 0.678 | 0.762 | 0.603 | 0.89 | 0.421 | 0.569 | 0.411 | 0.548 | 0.475 | 0.489 |
| NCI-H2347 | 0.913 | 0.76 | 0.892 | 0.827 | 0.746 | 1.06 | 0.997 | 0.973 | 0.946 | 0.954 | 0.421 | 0.433 | 0.41 | 0.454 | 0.407 | 0.323 |  | 0.263 | 0.284 | 0.279 |
| NCI-H2405 | 1.05 | 0.876 | 1.07 | 0.894 | 0.994 | 1.02 | 1.1 | 1.01 |  | 0.932 | 0.454 | 0.449 | 0.48 | 0.46 | 0.442 | 0.218 |  | 0.231 | 0.184 | 0.204 |
| NCI-H3122 | 0.962 | 1.02 | 1.08 | 1.09 | 0.996 | 1 | 1.07 | 1.08 | 1.15 | 1.01 | 0.194 | 0.203 | 0.168 | 0.216 | 0.197 | 0.737 | 0.824 | 0.877 | 0.983 | 0.563 |
| PC-3 [JPC-3] | 0.909 | 0.805 | 0.841 |  | 0.885 | 0.99 | 0.927 | 0.978 |  | 1.04 | 0.55 | 0.542 |  | 0.557 | 0.567 | 1.04 | 0.92 | 0.896 | 1.05 | 0.954 |
| PC-14 | 1.12 | 0.833 | 0.957 | 0.942 | 0.697 | 1.02 | 1.04 | 1.01 | 1.05 | 0.94 | 0.545 | 0.415 | 0.571 | 0.486 | 0.488 | 0.274 | 0.195 | 0.275 | 0.311 | 0.343 |
| RERF-LC-KJ | 1.16 | 1.18 | 1.12 | 1.14 | 1.06 | 0.889 | 0.865 | 0.872 | 0.957 | 0.893 | 1.02 | 0.89 | 0.937 | 1.05 | 1.04 | 0.91 | 0.701 | 0.739 | 0.836 | 0.678 |
| SK-LU-1 | 1.22 | 1.2 | 1.4 | 1.03 | 1.05 | 1.16 | 1.08 | 1.32 | 1.16 | 1.17 | 0.308 | 0.325 | 0.345 | 0.378 | 0.372 | 0.167 | 0.17 | 0.15 | 0.159 | 0.151 |
| SW 1573 | 1.15 | 1.04 | 1.41 | 1.3 | 0.861 | 0.942 | 0.674 | 0.694 | 0.746 | 0.843 | 0.342 | 0.368 | 0.382 | 0.31 | 0.238 | 0.528 | 0.344 | 0.522 | 0.354 | 0.406 |
